Measured values: patent US11104648B2, “Pyrazole derivative” (Zhejiang Research Institute of Chemical Industry Co., Ltd., priority 2018, dated 2021)
Like-named read-outs stand apart in the source and are kept apart here.

Columns and labels:
Assay type in all cases: in vivo
[1] = system: Tetranychus cinnabarinus Nymphs; test: Activity assay of Tetranychus cinnabarinus nymphs (spray on broad bean leaves)
Method: According to the solubility of the test compound, the crude drug was dissolved in N, N-dimethylformamide, and then prepared into a test solution of the desired concentration with 1‰ Tween 80 aqueous solution. The content of N,N-dimethylformamide in the solution should not exceed 10%.
The broad bean leaves with petioles were cut and inserted into a small bottle with water. A certain number of brightly colored, active female adult mites were placed, 24h later, adult mites were removed, and leaves with insufficient eggs were removed. When eggs were hatched and grew into nymphs, spray treatment was performed. The experiment was repeated three times, and a blank control was set, and placed to an observation room (26±2° C., humidity 70%˜80%, 16h light per day) for culture. 48 h later, the results were investigated. The nymphs were gently touched during investigation, and if no response, they were regarded as deaths.

[2] = system: adult Tetranychus cinnabarinus; test: Activity assay of adult Tetranychus cinnabarinus (whole-plant spray on bean seedlings); details: 48 h; for pest or weed control at 1.25 µg/mL: concentration 1.25 mg/L
Method: According to the solubility of the test compound, the crude drug was dissolved in N, N-dimethlfornamide, and then prepared into a test solution of the desired concentration with 1‰ Tween 80 aqueous solution. The content of N,N-dimethylformamide in the solution should not exceed 10%.
Two euphylla bean seedlings were taken, after inoculated with adult Tetranychus cinnabarinus and the base number was investigated, whole plants were sprayed with a hand-held sprayer. The experiment was repeated three times for each treatment, after treatment, placed in a standard observation room after treatment, to investigate the survival number of mites in 48 hand calculate the death rate.

[3] = system: Eggs of Tetranychus Cinnabarinus; test: Activity assay of eggs of Tetranychus cinnabarinus (spray method, ovicidal); details: Tetranychus cinnabarinus; for pest or weed control at 2 µg/mL: concentration 2 mg/L
Method: According to the solubility of the test compound, the crude drug was dissolved in N N-dimethylformamide, and then prepared into a test solution of the desired concentration with 1‰ Tween 80 aqueous solution. The content of N. N-dimethylformamide in the solution should not exceed 10%.
Spray method. The broad bean leaves with petioles were cut and inserted into a bottle with water. A certain number of female mites were placed, 24h later, adult mites were removed, and spray treatment was performed in 24 h. The experiment was repeated three times, and a blank control was set, and placed to an observation room (26±2° C., humidity 70%˜80%, 16h light per day) for culture. When the blank control group was incubated, the results were investigated. The non-incubated ones were used as death for investigation.

[4] = 48 h, concentration 2.5 mg/L, read-out: nymph-killing activity
[5] = concentration 2.5 mg/L, read-out: adult mite-killing activity
[6] = concentration 5 mg/L, spray, non-incubated eggs counted as dead, read-out: ovicidal activity
[7] = 48 h, concentration 2 mg/L, read-out: nymph-killing activity
[8] = 48 h, nymphs, concentration 0.5 mg/L, parallel determination, read-out: Death rate (%)
[9] = adult mites, parallel determination, read-out: Death rate (%)
[10] = read-out: adult mite-killing activity
[11] = spray, read-out: ovicidal activity
[12] = eggs, parallel determination, read-out: Death rate (%)

Structure (SMILES)	pest or weed control at 2.5 µg/mL [1, 4] [%]	pest or weed control at 2.5 µg/mL [2, 5] [%]	pest or weed control at 5 µg/mL [3, 6] [%]	other results
CCSC(=O)OC(C)O/C(=C(/C#N)c1ccc(C(C)(C)C)cc1)c1cc(C)nn1C (stereo not drawn) [Compound 512]	≥ 95	≥ 90	≥ 90	–
Cc1nn(C)c(/C(OC(C)OC(=O)C(F)(F)F)=C(\C#N)c2ccc(C(C)(C)C)cc2)c1Cl (stereo not drawn) [Compound 113]	≥ 95	≥ 90	≥ 90	–
CCn1nc(C)c(Cl)c1/C(OC(C)OC(=O)COC)=C(\C#N)c1ccc(C(C)(C)C)cc1 (stereo not drawn) [Compound 333]	≥ 95	≥ 90	≥ 90	–
COCC(=O)OCO/C(=C(/C#N)c1ccc(C(C)(C)C)cc1)c1c(Cl)c(C)nn1C [Compound 83]	≥ 95	≥ 90	≥ 90	–
CCn1nc(C)cc1/C(OC(C)OC(=O)OCC(C)C)=C(\C#N)c1ccc(C(C)(C)C)cc1 (stereo not drawn) [Compound 585]	≥ 95	≥ 90	≥ 90	pest or weed control at 2 µg/mL [1, 7]: ≥ 90%; pest or weed control at 0.5 µg/mL [1, 8]: 96%; pest or weed control at 1.25 µg/mL [2, 9]: 100%; pest or weed control at 1.25 µg/mL [2, 10]: ≥ 90%; pest or weed control at 2 µg/mL [3, 11]: ≥ 90%; pest or weed control at 2 µg/mL [3, 12]: 100%
CCCCCOC(=O)OC(C)O/C(=C(/C#N)c1ccc(C(C)(C)C)cc1)c1c(Cl)c(C)nn1CC (stereo not drawn) [Compound 780]	≥ 95	≥ 90	≥ 90	pest or weed control at 2 µg/mL [1, 7]: ≥ 90%; pest or weed control at 1.25 µg/mL [2, 10]: ≥ 90%; pest or weed control at 2 µg/mL [3, 11]: ≥ 90%
CCn1nc(C)cc1/C(OCOC(=O)OCC(=O)OC)=C(\C#N)c1ccc(C(C)(C)C)cc1 [Compound 573]	≥ 95	≥ 90	≥ 90	–
CCn1nc(C)c(C)c1/C(OCOC(=O)OCC(C)C)=C(\C#N)c1ccc(C(C)(C)C)cc1 [Compound 937]	≥ 95	≥ 90	≥ 90	pest or weed control at 2 µg/mL [1, 7]: ≥ 90%; pest or weed control at 0.5 µg/mL [1, 8]: 90%; pest or weed control at 1.25 µg/mL [2, 9]: 100%; pest or weed control at 1.25 µg/mL [2, 10]: ≥ 90%; pest or weed control at 2 µg/mL [3, 11]: ≥ 90%; pest or weed control at 2 µg/mL [3, 12]: 100%
CCOC(=O)OC(C)O/C(=C(/C#N)c1ccc(C(C)(C)C)cc1)c1cc(C)nn1CC (stereo not drawn) [Compound 580]	≥ 95	≥ 90	≥ 90	pest or weed control at 2 µg/mL [1, 7]: ≥ 90%; pest or weed control at 1.25 µg/mL [2, 10]: ≥ 90%; pest or weed control at 2 µg/mL [3, 11]: ≥ 90%
CCCCCOC(=O)OC(C)O/C(=C(/C#N)c1ccc(C(C)(C)C)cc1)c1cc(C)nn1C (stereo not drawn) [Compound 492]	≥ 95	≥ 90	≥ 90	–
Cc1nn(C)c(/C(OC(C)OC(=O)C2CCCCC2)=C(\C#N)c2ccc(C(C)(C)C)cc2)c1Cl (stereo not drawn) [Compound 111]	≥ 95	≥ 90	≥ 90	–
C#CCOC(=O)OC(C)O/C(=C(/C#N)c1ccc(C(C)(C)C)cc1)c1cc(C)nn1C (stereo not drawn) [Compound 508]	≥ 95	≥ 90	≥ 90	–
CCn1nc(C)c(C)c1/C(OC(C)OC(=O)Cc1ccccc1)=C(\C#N)c1ccc(C(C)(C)C)cc1 (stereo not drawn) [Compound 415]	–	≥ 90	≥ 90	pest or weed control at 2.5 µg/mL ([1]; concentration 2.5 mg/L, 48 h, read-out: nymph-killing activity): ≥ 95%
CCCCC(=O)OCO/C(=C(/C#N)c1ccc(C(C)(C)C)cc1)c1cc(C)nn1CC [Compound 231]	≥ 95	≥ 90	≥ 90	–
Cc1cc(/C(OC(C)OC(=O)C(C)(C)C)=C(\C#N)c2ccc(C(C)(C)C)cc2)n(C)n1 (stereo not drawn) [Compound 30]	≥ 95	≥ 90	≥ 90	–
C=CC(=O)OC(C)O/C(=C(/C#N)c1ccc(C(C)(C)C)cc1)c1c(C)c(C)nn1C (stereo not drawn) [Compound 192]	≥ 95	≥ 90	≥ 90	–
COCC(=O)OC(C)O/C(=C(/C#N)c1ccc(C(C)(C)C)cc1)c1cc(C)nn1C (stereo not drawn) [Compound 33]	≥ 95	≥ 90	≥ 90	–
CCCC(=O)OC(C)O/C(=C(/C#N)c1ccc(C(C)(C)C)cc1)c1c(Cl)c(C)nn1CC (stereo not drawn) [Compound 328]	≥ 95	≥ 90	≥ 90	–
Cc1nn(C)c(/C(OCOC(=O)CF)=C(\C#N)c2ccc(C(C)(C)C)cc2)c1Cl [Compound 87]	–	–	–	pest or weed control at 2.5 µg/mL ([1]; 48 h, read-out: nymph-killing activity): ≥ 95%; pest or weed control at 2.5 µg/mL [2, 10]: ≥ 90%; pest or weed control at 5 µg/mL ([3]; read-out: ovicidal activity): ≥ 90%
CCCCC(=O)OCO/C(=C(/C#N)c1ccc(C(C)(C)C)cc1)c1c(Cl)c(C)nn1C [Compound 81]	≥ 95	≥ 90	≥ 90	–
C=CC(=O)OCO/C(=C(/C#N)c1ccc(C(C)(C)C)cc1)c1cc(C)nn1CC [Compound 242]	≥ 95	≥ 90	≥ 90	–
Cc1nn(C)c(/C(OCOC(=O)C2CCCCC2)=C(\C#N)c2ccc(C(C)(C)C)cc2)c1Cl [Compound 86]	≥ 95	≥ 90	≥ 90	–
Cc1nn(C)c(/C(OCOC(=O)C(C)(C)C)=C(\C#N)c2ccc(C(C)(C)C)cc2)c1Cl [Compound 80]	≥ 95	≥ 90	≥ 90	–
Cc1cc(/C(OC(C)OC(=O)c2ccccc2)=C(\C#N)c2ccc(C(C)(C)C)cc2)n(C)n1 (stereo not drawn) [Compound 39]	≥ 95	≥ 90	≥ 90	–
CCn1nc(C)cc1/C(OC(C)OC(=O)COC)=C(\C#N)c1ccc(C(C)(C)C)cc1 (stereo not drawn) [Compound 258]	≥ 95	≥ 90	≥ 90	–
Cc1cc(/C(OCOC(=O)C2CCCCC2)=C(\C#N)c2ccc(C(C)(C)C)cc2)n(C)n1 [Compound 11]	≥ 95	≥ 90	≥ 90	–
CSCC(=O)OC(C)O/C(=C(/C#N)c1ccc(C(C)(C)C)cc1)c1c(C)c(C)nn1C (stereo not drawn) [Compound 185]	≥ 95	≥ 90	≥ 90	–
CC(=O)OCOC(=C(C#N)c1ccc(C(C)(C)C)cc1)c1ccccc1C(F)(F)F [Compound 8-2, reference compound]	< 80	< 80	< 30	pest or weed control at 0.5 µg/mL ([1]; 48 h, concentration 0.5 mg/L, read-out: nymph-killing activity): < 30%; pest or weed control at 0.5 µg/mL [1, 8]: 0%; pest or weed control at 1.25 µg/mL [2, 9]: 30%; pest or weed control at 1.25 µg/mL [2, 10]: < 50%; pest or weed control at 2 µg/mL [3, 11]: 0%; pest or weed control at 2 µg/mL [3, 12]: 0%
CCn1nc(C)c(Cl)c1/C(OC(C)OC(=O)C1CCCCC1)=C(\C#N)c1ccc(C(C)(C)C)cc1 (stereo not drawn) [Compound 336]	≥ 95	≥ 90	≥ 90	–
